# Assay results from patent publication US20080161232A1, “C5a Receptor Antagonist” (JERINI AG, priority 2005, published 2008).
# Starred links: 1 amine or outer side, 2 acyl side, 3 side chain; linkers in the order of their positions; H or OH if unused. Positions of bridges follow the written chain, without caps; N, C: chain ends. Non-standard residues stand in square brackets, D forms with d. Residues, ends and D or L forms follow the SMILES beside them. ξ: configuration not given here. *: point of attachment. Dihydroorotyl(S) = O=C1C[C@@H](C(=O)*)NC(=O)N1; dβ3hPhg = O=C(C[C@H](N[*:1])c1ccccc1)[*:2]; Decanoyl(3,6,9-trioxa) = COCCOCCOCC(=O)*; Phe(3-Cl) = N[C@@H](Cc1cccc(Cl)c1)C(=O)O; Phe(4-F) = N[C@@H](Cc1ccc(F)cc1)C(=O)O; X11 = N=C(N)N[C@@H](Cc1ccccc1)C(=O)*; Bta = N[C@@H](Cc1csc2ccccc12)C(=O)O; Hyp = O=C(O)[C@@H]1C[C@@H](O)CN1; d(hLeu) = CC(C)CC[C@@H](N)C(=O)O; ξNip = O=C(C1CCCN([*:1])C1)[*:2]; Cit = NC(=O)NCCC[C@H](N)C(=O)O; dCha = N[C@H](CC1CCCCC1)C(=O)O; Methoxyoxalyl = COC(=O)C(=O)*; NHCH2CH(OH)CH2OH = OCC(O)CN*; Nle = CCCC[C@H](N)C(=O)O; Orn = NCCC[C@H](N)C(=O)O; CO = O=C([*:1])[*:2]; βAla = NCCC(=O)O; tBu = CC(C)(C)*
# Target: T1, human C5aR(CD88) (Homo sapiens, UniProt P21730)
# T1 construct: expressed in transfected cells; host or cells: rat basophilic leukemia cells (RBL)
# T1 sequence (P21730 1-350): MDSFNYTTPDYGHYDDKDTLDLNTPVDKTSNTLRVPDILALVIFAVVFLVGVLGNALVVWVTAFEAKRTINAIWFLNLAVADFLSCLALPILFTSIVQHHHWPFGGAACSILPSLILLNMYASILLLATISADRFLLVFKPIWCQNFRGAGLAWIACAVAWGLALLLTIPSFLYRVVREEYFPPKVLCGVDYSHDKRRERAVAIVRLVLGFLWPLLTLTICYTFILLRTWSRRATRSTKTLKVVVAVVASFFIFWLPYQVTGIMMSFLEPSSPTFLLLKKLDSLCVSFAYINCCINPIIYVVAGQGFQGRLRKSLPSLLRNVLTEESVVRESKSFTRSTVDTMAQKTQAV
# Assay: Determination of the IC50 value in an enzyme release assay (functional assay, antagonistic activity)
# Type: cell-based
# Details: activity (group)
row,SMILES,IC50
1,"CO[C@@H]1C[C@H]2C(=O)N[C@H](CCC(C)C)C(=O)N[C@@H](Cc3ccc(F)cc3)C(=O)N[C@@H](Cc3ccccc3)C(=O)NCCC[C@H](NC(=O)[C@@H](N)Cc3ccccc3)C(=O)N2C1 [Compound 355, H-Phe-[Orn-Hym-hle-Pff-Phe]] (H-F[Orn][Hyp](Me)[d(hLeu)][Phe(4-F)]F; lactam 2-C)",0.05 to 0.2 µM

# Same assay, conditions: antagonistic activity; IC50 group in enzyme release assay, RBL cells expressing human C5aR(CD88); read-out: activity (group)
row,IC50,SMILES
1,0.05 to 0.2 µM,"COCCOCCOCC(=O)N[C@@H](Cc1ccccc1)C(=O)N[C@H]1CCCNC(=O)[C@H](Cc2ccccc2)NC(=O)[C@H](Cc2c[nH]c3ccccc23)NC(=O)[C@@H](CC2CCCCC2)NC(=O)[C@@H]2C[C@@H](O)CN2C1=O [Compound 337, Fhi-Phe-[Orn-Hyp-cha-Trp-Phe]] ({Decanoyl(3,6,9-trioxa)}-F[Orn][Hyp][dCha]WF; lactam 2-C)"
2,0.05 to 0.2 µM,"CCCC[C@@H]1NC(=O)[C@H](Cc2ccc(F)cc2)NC(=O)[C@@H](CCC(C)C)NC(=O)[C@@H]2CCCN2C(=O)[C@@H](NC(=O)[C@H](Cc2ccccc2)NC(=N)N)CCCNC1=O [Compound 338, Fhu-Phe-[Orn-Pro-hle-Pff-Nle]] (X11-[Orn]P[d(hLeu)][Phe(4-F)][Nle]; lactam 1-C)"
3,0.05 to 0.2 µM,"CCCC[C@@H]1NC(=O)[C@H](Cc2c[nH]c3ccccc23)NC(=O)[C@@H](CCC(C)C)NC(=O)[C@@H]2C[C@@H](O)CN2C(=O)[C@@H](NC(=O)[C@H](Cc2ccccc2)NC(=O)CCN)CCCNC1=O [Compound 342, H-Bal-Phe-[Orn-Hyp-hle-Trp-Nle]] (H-[βAla]F[Orn][Hyp][d(hLeu)]W[Nle]; lactam 3-C)"
4,0.05 to 0.2 µM,"CCCC[C@@H]1NC(=O)[C@H](Cc2ccc(F)cc2)NC(=O)[C@@H](CCC(C)C)NC(=O)[C@@H]2CCCN2C(=O)[C@@H](NC(=O)[C@H](Cc2ccccc2)NC(=O)CCN)CCCNC1=O [Compound 343, H-Bal-Phe-[Orn-Pro-hle-Pff-Nle]] (H-[βAla]F[Orn]P[d(hLeu)][Phe(4-F)][Nle]; lactam 3-C)"
5,0.05 to 0.2 µM,"CCCC[C@@H]1NC(=O)[C@H](Cc2c[nH]c3ccccc23)NC(=O)[C@@H](CCC(C)C)NC(=O)[C@@H]2C[C@@H](O)CN2C(=O)[C@@H](NC(=O)C[C@H](N)c2ccccc2)CCCNC1=O [Compound 344, H-Eby-[Orn-Hyp-hle-Trp-Nle]] (dβ3hPhg-[Orn][Hyp][d(hLeu)]W[Nle]; lactam 1-C)"
6,0.05 to 0.2 µM,"NCCC[C@H](NC(=O)[C@H](Cc1ccccc1)NC(=O)CN)C(=O)N1CCC[C@H]1C(=O)N[C@H](CC1CCCCC1)C(=O)N[C@@H](Cc1csc2ccccc12)C(=O)N[C@@H](Cc1ccccc1)C(N)=O [Compound 345, H-Gly-Phe-Orn-Pro-cha-Bta-Phe-NH2] (H-GF[Orn]P[dCha][Bta]F-NH2)"
7,0.05 to 0.2 µM,"CCCC[C@@H]1NC(=O)[C@H](Cc2ccc(F)cc2)NC(=O)[C@@H](CCC(C)C)NC(=O)[C@@H]2C[C@@H](O)CN2C(=O)[C@@H](NC(=O)[C@H](Cc2ccccc2)NC(=O)[C@@H]2CC(=O)NC(=O)N2)CCCNC1=O [Compound 347, Hoo-Phe-[Orn-Hyp-hle-Pff-Nle]] ({Dihydroorotyl(S)}-F[Orn][Hyp][d(hLeu)][Phe(4-F)][Nle]; lactam 2-C)"
8,0.05 to 0.2 µM,"CC(C)CC[C@@H](NC(=O)[C@@H]1CCCN1C(=O)[C@H](CCCNC(N)=O)NC(=O)[C@H](Cc1ccccc1)NC(=O)[C@@H]1CC(=O)NC(=O)N1)C(=O)N[C@@H](Cc1ccc(F)cc1)C(=O)N[C@@H](Cc1ccccc1)C(N)=O [Compound 348, Hoo-Phe-Cit-Pro-hle-Pff-Phe-NH2] ({Dihydroorotyl(S)}-F[Cit]P[d(hLeu)][Phe(4-F)]F-NH2)"
9,0.05 to 0.2 µM,"CC(C)CC[C@@H](NC(=O)[C@@H]1C[C@@H](O)CN1C(=O)[C@H](CCCN)NC(=O)[C@H](Cc1ccccc1)NC(=O)[C@@H]1CC(=O)NC(=O)N1)C(=O)N[C@@H](Cc1ccc(F)cc1)C(=O)N[C@@H](Cc1ccccc1)C(N)=O [Compound 349, Hoo-Phe-Orn-Hyp-hle-Pff-Phe-NH2] ({Dihydroorotyl(S)}-F[Orn][Hyp][d(hLeu)][Phe(4-F)]F-NH2)"
10,0.02 to 0.05 µM,"CC(C)CC[C@@H](NC(=O)[C@@H]1CCCN1C(=O)[C@H](CCCN)NC(=O)[C@H](Cc1ccccc1)NC(=O)[C@@H]1CC(=O)NC(=O)N1)C(=O)N[C@@H](Cc1csc2ccccc12)C(=O)N[C@@H](Cc1ccccc1)C(N)=O [Compound 350, Hoo-Phe-Orn-Pro-hle-Bta-Phe-NH2] ({Dihydroorotyl(S)}-F[Orn]P[d(hLeu)][Bta]F-NH2)"
11,0.02 to 0.05 µM,"CC(C)CC[C@@H](NC(=O)[C@@H]1CCCN1C(=O)[C@H](CCCN)NC(=O)[C@H](Cc1ccccc1)NC(=O)[C@@H]1CC(=O)NC(=O)N1)C(=O)N[C@@H](Cc1cccc(Cl)c1)C(=O)N[C@@H](Cc1ccccc1)C(N)=O [Compound 351, Hoo-Phe-Orn-Pro-hle-Mcf-Phe-NH2] ({Dihydroorotyl(S)}-F[Orn]P[d(hLeu)][Phe(3-Cl)]F-NH2)"
12,0.02 to 0.05 µM,"CC(C)CC[C@@H](NC(=O)[C@@H]1CCCN1C(=O)[C@H](CCCN)NC(=O)[C@H](Cc1ccccc1)NC(=O)[C@@H]1CC(=O)NC(=O)N1)C(=O)N[C@@H](Cc1ccc(F)cc1)C(=O)N[C@@H](Cc1ccccc1)C(N)=O [Compound 352, Hoo-Phe-Orn-Pro-hle-Pff-Phe-NH2] ({Dihydroorotyl(S)}-F[Orn]P[d(hLeu)][Phe(4-F)]F-NH2)"
13,0.05 to 0.2 µM,"CCCC[C@@H]1NC(=O)[C@H](Cc2ccc(F)cc2)NC(=O)[C@@H](CCC(C)C)NC(=O)[C@@H]2C[C@@H](O)CN2C(=O)[C@@H](NC(=O)[C@@H](N)Cc2ccccc2)CCCCNC1=O [Compound 353, H-Phe-[Lys-Hyp-hle-Pff-Nle]] (H-FK[Hyp][d(hLeu)][Phe(4-F)][Nle]; lactam 2-C)"
14,0.05 to 0.2 µM,"CC(C)CC[C@H]1NC(=O)[C@@H]2C[C@@H](O)CN2C(=O)[C@@H](NC(=O)[C@@H](N)Cc2ccccc2)CCCNC(=O)[C@H](CC(C)C)NC(=O)[C@H](Cc2cccc(Cl)c2)NC1=O [Compound 361, H-Phe-[Orn-Hyp-hle-Mcf-Leu]] (H-F[Orn][Hyp][d(hLeu)][Phe(3-Cl)]L; lactam 2-C)"

row,SMILES,IC50
1,"O=C(NCC(O)CO)N[C@@H](Cc1ccccc1)C(=O)N[C@H]1CCCNC(=O)[C@H](Cc2ccccc2)NC(=O)[C@H](Cc2c[nH]c3ccccc23)NC(=O)[C@@H](CC2CCCCC2)NC(=O)[C@@H]2C[C@@H](O)CN2C1=O (stereo partly drawn) [Compound 336, Fhb-[Phe-Orn-Hyp-cha-Trp-Phe]] ({NHCH2CH(OH)CH2OH-CO}-F[Orn][Hyp][dCha]WF; lactam 2-C)",0.05 to 0.2 µM
2,"N=C(N)N[C@@H](Cc1ccccc1)C(=O)N[C@@H](CCCN)C(=O)N1CCC[C@H]1C(=O)N[C@H](CC1CCCCC1)C(=O)N[C@@H](Cc1csc2ccccc12)C(=O)N[C@@H](Cc1ccccc1)C(N)=O [Compound 339, Fhu-Phe-Orn-Pro-cha-Bta-Phe-NH2] (X11-[Orn]P[dCha][Bta]F-NH2)",0.05 to 0.2 µM
3,"COC(=O)C(=O)N[C@@H](Cc1ccccc1)C(=O)N[C@@H](CCCN)C(=O)N1CCC[C@H]1C(=O)N[C@H](CC1CCCCC1)C(=O)N[C@@H](Cc1csc2ccccc12)C(=O)N[C@@H](Cc1ccccc1)C(N)=O [Compound 340, Fid-Phe-Orn-Pro-cha-Bta-Phe-NH2] (Methoxyoxalyl-F[Orn]P[dCha][Bta]F-NH2)",0.05 to 0.2 µM
4,"CC(C)CC[C@@H](NC(=O)[C@@H]1CCCN1C(=O)[C@H](CCCNC(N)=O)NC(=O)[C@H](Cc1ccccc1)NC(=O)C1CCCNC1)C(=O)N[C@@H](Cc1csc2ccccc12)C(=O)N[C@@H](Cc1ccccc1)C(N)=O (stereo partly drawn) [Compound 346, H-Nip-Phe-Cit-Pro-hle-Bta-Phe-NH2] (ξNip-F[Cit]P[d(hLeu)][Bta]F-NH2)",0.05 to 0.2 µM
5,"CCCC[C@@H]1NC(=O)[C@H](Cc2cccc(Cl)c2)NC(=O)[C@@H](CCC(C)C)NC(=O)[C@@H]2C[C@@H](OC)CN2C(=O)[C@@H](NC(=O)[C@@H](N)Cc2ccccc2)CCCNC1=O [Compound 354, H-Phe-[Orn-Hym-hle-Mcf-Nle]] (H-F[Orn][Hyp](Me)[d(hLeu)][Phe(3-Cl)][Nle]; lactam 2-C)",0.05 to 0.2 µM
6,"CCCC[C@@H]1NC(=O)[C@H](Cc2c[nH]c3ccccc23)NC(=O)[C@@H](CC2CCCCC2)NC(=O)[C@@H]2C[C@@H](O)CN2C(=O)[C@@H](NC(=O)[C@@H](N)Cc2ccccc2)CCCNC1=O [Compound 356, H-Phe-[Orn-Hyp-cha-Trp-Nle]] (H-F[Orn][Hyp][dCha]W[Nle]; lactam 2-C)",0.02 to 0.05 µM
7,"N[C@@H](Cc1ccccc1)C(=O)N[C@H]1CCCNC(=O)[C@H](Cc2ccccc2)NC(=O)[C@H](Cc2c[nH]c3ccccc23)NC(=O)[C@@H](CC2CCCCC2)NC(=O)[C@@H]2C[C@@H](O)CN2C1=O [Compound 357, H-Phe-[Orn-Hyp-cha-Trp-Phe]] (H-F[Orn][Hyp][dCha]WF; lactam 2-C)",0.02 to 0.05 µM
8,"CCCC[C@@H]1NC(=O)[C@H](Cc2ccc(F)cc2)NC(=O)[C@@H](CSC(C)(C)C)NC(=O)[C@@H]2C[C@@H](O)CN2C(=O)[C@@H](NC(=O)[C@@H](N)Cc2ccccc2)CCCNC1=O [Compound 358, H-Phe-[Orn-Hyp-ctb-Pff-Nle]] (H-F[Orn][Hyp][dC](tBu)[Phe(4-F)][Nle]; lactam 2-C)",0.05 to 0.2 µM
9,"CCCC[C@@H]1NC(=O)[C@H](Cc2c[nH]c3ccccc23)NC(=O)[C@@H](CSC(C)(C)C)NC(=O)[C@@H]2C[C@@H](O)CN2C(=O)[C@@H](NC(=O)[C@@H](N)Cc2ccccc2)CCCNC1=O [Compound 359, H-Phe-[Orn-Hyp-ctb-Trp-Nle]] (H-F[Orn][Hyp][dC](tBu)W[Nle]; lactam 2-C)",0.02 to 0.05 µM
10,"CC(C)(C)SC[C@H]1NC(=O)[C@@H]2C[C@@H](O)CN2C(=O)[C@@H](NC(=O)[C@@H](N)Cc2ccccc2)CCCNC(=O)[C@H](Cc2ccccc2)NC(=O)[C@H](Cc2c[nH]c3ccccc23)NC1=O [Compound 360, H-Phe-[Orn-Hyp-ctb-Trp-Phe]] (H-F[Orn][Hyp][dC](tBu)WF; lactam 2-C)",0.02 to 0.05 µM
